Here are results for 2 compounds from patent US7189856B2 (priority 2001, dated 2007).

The target of the assay is T1, human SSTR2 receptors (Homo sapiens, UniProt P30874).
T1 construct: expressed in transfected cells; host or cells: CHO-K1 cells
Put plainly: inhibition of [125I] Somatostatin binding to human SSTR2 receptors expressed in CHO-K1 cells. As for the experimental part:
FIG. 1 illustrates the logarithmic concentration-response curves for inhibition of [^125I] […] Test compounds were tested in duplicate at all concentrations. The average percent inhibition of duplicate was used for plotting the displacement curves, fitted by non-linear regression.
FIG. 2 illustrates the logarithmic concentration-response curves for inhibition of [^125I] […] Test compounds were tested in duplicate at all concentrations. The average percent inhibition of duplicate was used for plotting the displacement curves, fitted by non-linear regression.

Counter-ions that a name gives are not always drawn.

T1 sequence (P30874 whole entry): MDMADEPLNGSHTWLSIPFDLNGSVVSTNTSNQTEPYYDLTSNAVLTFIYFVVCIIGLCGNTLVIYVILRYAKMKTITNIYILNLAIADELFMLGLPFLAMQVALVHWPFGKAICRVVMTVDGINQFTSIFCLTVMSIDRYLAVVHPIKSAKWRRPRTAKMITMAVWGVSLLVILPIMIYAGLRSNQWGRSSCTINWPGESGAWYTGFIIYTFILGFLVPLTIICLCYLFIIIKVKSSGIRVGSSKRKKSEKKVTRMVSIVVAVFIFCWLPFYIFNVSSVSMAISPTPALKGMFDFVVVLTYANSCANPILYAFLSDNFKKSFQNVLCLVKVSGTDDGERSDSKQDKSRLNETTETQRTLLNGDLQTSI

`CN(C)C(=O)c1cc(S(=O)(=O)N2C(=O)N(CC3CCC[C@@H](CN)C3)C(=O)[C@@H]2Cc2c[nH]c3ccccc23)ccc1Oc1ccc(O)c(Cl)c1` (single isomer, unassigned) [Example 15a HCl salt] gave an IC50 of 0.29 ± 0.0395 nM.

For `CN(C)C(=O)c1cc(S(=O)(=O)N2C(=O)N(C[C@@H]3CCC[C@H](CN)C3)C(=O)[C@@H]2Cc2c[nH]c3ccccc23)ccc1Oc1ccc(O)c(Cl)c1` (single isomer, unassigned) [Example 15b HCl salt], the IC50 turned out to be 1.3 ± 0.183 nM.

By IC50 is commonly meant the midpoint of a concentration-inhibition curve. A lower IC50 goes with inhibition by little substance.
